We go through 11 compounds from ChEMBL document CHEMBL1152655, “Novel acenaphtho[1,2-b]pyrrole-carboxylic acid family: synthesis, cytotoxicity, DNA-binding and cell cycle evaluation” (Bioorg Med Chem, 2009).

Calls of active or inactive are those of the source. The rule behind the calls is not given here. A value given as a limit tells only on which side of the number the result lay.

The subject of one test is HL-60. Description: Cytotoxicity against human HL60 cells after 48 hrs by MTT assay. The settings on record: HL-60, 48 h. The format is functional, cell-based.
In test [1] the test system is HeLa. The experiment in a line: Cell cycle arrest in human HeLa cells by accumulation at S phase at 12.05 uM by flow cytometry (Rvb=28.20%). Format: functional.
For test [2], the system named is Calf thymus DNA. Description: Binding affinity to calf thymus DNA assessed as conformational change at 10 uM by CD spectra. Format: nucleic-acid assay. The settings on record: Bos taurus.
Test [3] relates to HeLa. Description: Cell cycle arrest in human HeLa cells by accumulation at G2 phase at 12.05 uM by flow cytometry (Rvb=12.86%). The format is functional.
The test system of test [4] is Calf thymus DNA. Description: Binding affinity to calf thymus DNA. Format: nucleic-acid assay. The settings on record: Bos taurus.
The test system of the next test is HCT-8. Description: Cytotoxicity against human HCT8 cells after 48 hrs by MTT assay. The format is functional, cell-based. As to conditions: HCT-8, 48 h.
Test [5] relates to HeLa. The experiment in a line: Cell cycle arrest in human HeLa cells by accumulation at G2 phase at 3.01 uM by flow cytometry (Rvb=12.86%). Format: functional.
The subject of test [6] is HeLa. The experiment in a line: Cell cycle arrest in human HeLa cells by accumulation at G1 phase at 12.05 uM by flow cytometry (Rvb=58.94%). The format is functional.
The test system of test [7] is HeLa. The experiment in a line: Cell cycle arrest in human HeLa cells by accumulation at G1 phase at 21.08 uM by flow cytometry (Rvb=58.94%). The format is functional.
For test [8], the system named is HeLa. The experiment in a line: Cell cycle arrest in human HeLa cells by accumulation at S phase at 21.08 uM by flow cytometry (Rvb=28.20%). Format: functional.
Test [9] deals with HeLa. The experiment in a line: Cell cycle arrest in human HeLa cells by accumulation at G1 phase at 3.01 uM by flow cytometry (Rvb=58.94%). Format: functional.
Test [10] deals with HeLa. The experiment in a line: Cell cycle arrest in human HeLa cells assessed as apoptotic cells at 12.05 uM by flow cytometry relative to control. Format: functional.
Test [11] has as its system HeLa. Description: Cell cycle arrest in human HeLa cells by accumulation at S phase at 3.01 uM by flow cytometry (Rvb=28.20%). The format is functional.
Test [12] has as its system HeLa. The experiment in a line: Cytotoxicity against human HeLa cells after 48 hrs by MTT assay. Format: functional, cell-based.
Another test deals with A-375. The experiment in a line: Cytotoxicity against human A375 cells after 48 hrs by MTT assay. As to conditions: A-375, 48 h. The format is functional, cell-based.
Test [13] concerns Calf thymus DNA. Description: Binding affinity to calf thymus DNA assessed as increase in solution viscosity by viscometric titration. The format is nucleic-acid assay. As to conditions: Bos taurus.
Test [14] has as its system HeLa. The experiment in a line: Cell cycle arrest in human HeLa cells by accumulation at G2 phase at 21.08 uM by flow cytometry (Rvb=12.86%). Format: functional.
For test [15], the system named is HeLa. Description: Cell cycle arrest in human HeLa cells assessed as apoptotic cells at 21.08 uM by flow cytometry relative to control. The format is functional.
For test [16], the system named is Calf thymus DNA. The experiment in a line: Binding affinity to calf thymus DNA assessed as DNA intercalation at 30 uM by UV-Vis absorption studies. Format: nucleic-acid assay. As to conditions: Bos taurus.
Another test deals with MCF7. Description: Cytotoxicity against human MCF7 cells after 48 hrs by MTT assay. As to conditions: MCF7, 48 h. Format: functional, cell-based.
The test system of test [17] is HeLa. The experiment in a line: Cell cycle arrest in human HeLa cells assessed as apoptotic cells at 3.01 uM by flow cytometry relative to control. Format: functional.
The subject of test [18] is HeLa. Description: Cell cycle arrest in human HeLa cells by accumulation at G2 phase at 20.06 uM by flow cytometry (Rvb=12.86%). The format is functional.
For test [19], the system named is HeLa. Description: Cell cycle arrest in human HeLa cells assessed as apoptotic cells at 11.46 uM by flow cytometry relative to control. The format is functional.
Test [20] has as its system HeLa. The experiment in a line: Cell cycle arrest in human HeLa cells by accumulation at S phase at 11.46 uM by flow cytometry (Rvb=28.20%). The format is functional.
In test [21] the test system is HeLa. The experiment in a line: Cell cycle arrest in human HeLa cells by accumulation at G2 phase at 28.65 uM by flow cytometry (Rvb=12.86%). The format is functional.
Test [22] concerns HeLa. The experiment in a line: Cell cycle arrest in human HeLa cells by accumulation at G1 phase at 20.06 uM by flow cytometry (Rvb=58.94%). The format is functional.
Test [23] has as its system HeLa. Description: Cell cycle arrest in human HeLa cells by accumulation at G2 phase at 11.46 uM by flow cytometry (Rvb=12.86%). The format is functional.
Test [24] concerns HeLa. Description: Cell cycle arrest in human HeLa cells by accumulation at G1 phase at 11.46 uM by flow cytometry (Rvb=58.94%). The format is functional.
In test [25] the test system is HeLa. The experiment in a line: Cell cycle arrest in human HeLa cells assessed as apoptotic cells at 20.06 uM by flow cytometry relative to control. The format is functional.
The test system of test [26] is HeLa. The experiment in a line: Cell cycle arrest in human HeLa cells by accumulation at G1 phase at 28.65 uM by flow cytometry (Rvb=58.94%). Format: functional.
Test [27] has as its system HeLa. The experiment in a line: Cell cycle arrest in human HeLa cells assessed as apoptotic cells at 28.65 uM by flow cytometry relative to control. Format: functional.
Test [28] relates to HeLa. The experiment in a line: Cell cycle arrest in human HeLa cells by accumulation at S phase at 28.65 uM by flow cytometry (Rvb=28.20%). Format: functional.
The subject of test [29] is HeLa. Description: Cell cycle arrest in human HeLa cells by accumulation at S phase at 20.06 uM by flow cytometry (Rvb=28.20%). Format: functional.

`O=C(O)C1=C2C(=NC1=O)c1cccc3c(N4CCCCC4)ccc2c13`: the IC50 in the test with HL-60 is 20.5 µM; with HCT-8 it was 24.4 µM; in the test with HeLa [12], 20.6 µM; in the test on A-375 it was 18.4 µM; with MCF7, 14.5 µM. Further, the Activity was 30.52% in the test with HeLa [1]; 9.46% in the test with HeLa [3]; 3.75% in the test with HeLa [5]; 60.02% with HeLa [6]; 53.67% in the test with HeLa [7]; 33.58% in the test on HeLa [8]. Besides, the Activity in the test on HeLa [9] was 64.63%; in the test with HeLa [10], 4.81%; with HeLa [11], 31.63%; in the test on Calf thymus DNA [13], “Dose-dependent effect”; in the test with HeLa [14], 12.75%; in the test on HeLa [15] it was 11.95%. Also, in the test with HeLa [17], the Activity was found to be 4.34%. Moreover, the outcome with Calf thymus DNA [2] and in the test with Calf thymus DNA [16] was Active. Further, the K with Calf thymus DNA [4] is 2.91 ×10⁵ /M.
As for `CCCCNc1ccc2c3c(cccc13)C1=NC(=O)C(C(=O)O)=C12`, the IC50 with HL-60 was 24.1 µM; with HCT-8, 48.1 µM; in the test on HeLa [12], 30.3 µM; in the test on A-375 it was 50.1 µM; with MCF7, over 100 µM. Also, the K with Calf thymus DNA [4] amounted to 4.73 ×10⁵ /M.
As to `CN1CCN(c2ccc3c4c(cccc24)C2=NC(=O)C(C(=O)O)=C23)CC1`, the IC50 was found to be 51 µM in the test with HL-60; 72.1 µM in the test on HCT-8; 17.2 µM in the test on HeLa [12]; 28.5 µM in the test on A-375; 14.9 µM in the test on MCF7. In the test with Calf thymus DNA [4], this compound came in with a K of 6.13 ×10⁵ /M.
Turning to `N#CC1=C2C(=NC1=O)c1cccc3c(N4CCSCC4)ccc2c13`, the IC50 came to 28.6 µM with HL-60; 25.8 µM with HCT-8; 15.7 µM in the test on HeLa [12]; 48.7 µM in the test on A-375; 41.2 µM with MCF7.
As for `CN(C)CCCNc1ccc2c3c(cccc13)C1=NC(=O)C(C(=O)O)=C12`, the IC50 with HL-60 was 13.1 µM; with HCT-8 it was over 100 µM; with HeLa [12] it was 29.3 µM; in the test with A-375, over 100 µM; in the test with MCF7, 70.5 µM. For the same compound, the Activity came out at 18.6% with HeLa [18]; 5.22% in the test with HeLa [19]; 35.96% in the test with HeLa [20]; 17.49% with HeLa [21]; 35.97% with HeLa [22]; 13.17% in the test on HeLa [23]. Further, the Activity entry is “Dose-dependent effect” with Calf thymus DNA [13]; 50.87% with HeLa [24]; 11.13% in the test on HeLa [25]; 34.1% in the test on HeLa [26]; 13.89% with HeLa [27]; 48.41% in the test with HeLa [28]. The compound also registered an Activity with HeLa [29] of 45.43%. For the same compound, the result in the test with Calf thymus DNA [2] and in the test on Calf thymus DNA [16] was Active. Besides, in the test on Calf thymus DNA [4], the K is 6.01 ×10⁵ /M.
For the compound `CCN(CC)CCNc1ccc2c3c(cccc13)C1=NC(=O)C(C(=O)O)=C12`, the IC50 in the test with HL-60 was 19.8 µM; in the test with HCT-8, 38.1 µM; with HeLa [12] it was 10.4 µM; in the test on A-375, 71.8 µM; in the test on MCF7, 16.5 µM. This compound returned a K in the test on Calf thymus DNA [4] of 5.48 ×10⁵ /M.
On to `O=C(O)C1=C2C(=NC1=O)c1cccc3c(N4CCOCC4)ccc2c13`, for which the IC50 with HL-60 is 42.2 µM; with HCT-8 it was over 100 µM; with HeLa [12], 36.2 µM; with A-375, 79.4 µM; in the test with MCF7, 18 µM. In addition, the K in the test on Calf thymus DNA [4] was 2.34 ×10⁵ /M.
As to `O=C(O)C1=C2C(=NC1=O)c1cccc3c(N4CCSCC4)ccc2c13`, the IC50 in the test on HL-60 is 76.9 µM; with HCT-8, over 100 µM; in the test with HeLa [12] it was 48.9 µM; with A-375 it was over 100 µM; with MCF7, over 100 µM. For the same compound, the K in the test on Calf thymus DNA [4] turned out to be 2.69 ×10⁵ /M.
As for `O=C(O)C1=C2C(=NC1=O)c1cccc3c(NCc4cccs4)ccc2c13`, the half-inhibitory concentration (IC50) with HL-60 was 90 µM; in the test on HCT-8, over 100 µM; in the test with HeLa [12], 84.3 µM; with A-375 it was over 100 µM; in the test with MCF7 it was over 100 µM. The compound also registered a K in the test on Calf thymus DNA [4] of 6.75 ×10⁵ /M.
In the case of `COC(=O)C1=C2C(=NC1=O)c1cccc3c(N4CCSCC4)ccc2c13`, the IC50 was over 100 µM with HL-60; over 100 µM with HCT-8; 26.9 µM in the test with HeLa [12]; over 100 µM with A-375; 68 µM in the test with MCF7.
Turning to `CN(C)CCNc1ccc2c3c(cccc13)C1=NC(=O)C(C(=O)O)=C12`, the IC50 was 47.9 µM in the test with HL-60; over 100 µM in the test with HCT-8; 89.7 µM with HeLa [12]; over 100 µM with A-375; 97 µM with MCF7. Moreover, the K in the test on Calf thymus DNA [4] was 5.96 ×10⁵ /M.
